The record followed here is patent US8445441B2, “Inhibitors of BCL-2” (Case Western Reserve University, priority 2007, dated 2013).

The target of experiment [1] is T1, Bcl-2-IP3R interaction (Homo sapiens, UniProt P10415). As to the kind of experiment: GST pull-down of Bcl-2 from Bcl-2(+) WEHI7.2 extracts with GST-IP3R domain 3. It is filed as binding, mouse. Set-up: expressed in transfected cells; host or cells: Bcl-2(+) WEHI7.2 cells (source of Bcl-2). The text has this:
To identify where Bcl-2 interacts on the IP3R, we used a series of GST-IP3R fusion constructs corresponding to five fragments covering the first N-terminal 2216 amino acids and 1 fragment corresponding to the last 160 amino acids of mouse IP3R type 1 (FIG. 3). These fragments are located in the cytoplasm and coincide with “natural” domains generated by limited proteolysis. The transmembrane domain was not included. After purification, fragments migrated as single prominent bands corresponding to their expected molecular weights, although some minor degradation products were detected.
The first set of GST pull-down experiments utilized extracts of Bcl-2(+) WEHI7.2 cells and Jurkat cells as two independent sources of Bcl-2. Cell extracts were incubated with GST-IP3R fragments prebound to glutathione sepharose resin, with equal loading of the GST-IP3R fragments. […] These experiments were repeated a total of five times with the same result. It is important to note that, following incubation of cell extracts with GST-IP3R fragments on the glutathione sepharose resin, the resin was washed extensively.
Since the IP3R binding region was narrowed down to the 80 amino acid subdomain 3a1 (aa 1347-1426), we designed two 20 amino acid peptides (peptide 1, aa 1365-1384 (SEQ ID NO:2); peptide 2, aa 1389-1408 (SEQ ID NO:3)) based on the degree of homology in this region among different IP3R isoforms. Also, preference was given to regions that have beta-turn and/or α-helical structures, rather than random-coil or nonstructured sequences, expecting that one or both of the peptides could inhibit the Bcl-2-IP3R interaction. Furthermore, the C-terminal region of domain 3a1 was not selected because of its lower accessibility and unpredictable secondary structure (Invitrogen PeptideSelect Design Tool). The scrambled sequence of peptide 2 was also synthesized and used as a control. […] The inhibitory effect of peptide 2 on Bcl-2-IP3R interaction was also detected in coimmunoprecipitation assays employing both Bcl-2(+) WEHI7.2 cells (FIGS. 4A and 4B) and Jurkat cells (FIG. 4C). […]

For experiment [2], the system named is IP3R type 1 channel. As to the kind of experiment: single IP3R channel activity in planar lipid bilayers. It is filed as biochemical. To be noted: 2 μM IP3, 250 nM Ca2+. As for the experimental part: FIG. 5 illustrates a summary of multiple experiments (mean±SEM) measuring effects of Bcl-2 and peptides on IP3R channel open probability. n=number of individual channels examined. Symbols represent mean±SEM. *p<0.05.
The effects of peptide 2 and purified Bcl-2 on IP3R channel activity were analyzed in planar lipid bilayers under steady-state conditions. Single IP3R type 1 channel activity was visualized as a series of discrete positive current fluctuations in the presence of 2 μM IP3 and 250 nM Ca^2+ in the cis compartment (cytoplasmic side of channel). A significant reduction in single channel activity was observed after adding 0.1 μM purified Bcl-2 to the cytoplasmic face of the IP3R channel, and addition of 10 μM peptide 2 reversed Bcl-2's inhibitory effect on channel activity. Average open probabilities under various conditions were calculated from multiple repeated experiments (FIG. 5). Addition of Bcl-2 reduced IP3R open probability by 11.5-fold to 0.018.

For experiment [3], the system named is Jurkat cells. As to the kind of experiment: anti-CD3-induced apoptosis (apoptotic nuclei). In kind it is cell-based. Here is the method:
FIG. 7 illustrates peptide 2 Enhances Anti-CD3-Induced Apoptosis in Bcl-2-Positive Cells (A) Typical apoptotic nuclear morphology (arrow, Hoechst 33342 stain) 24 hr after 5 μg/ml anti-CD3 treatment of Jurkat cells. Scale bars, 10 μm. (B) Bcl-2(−) and Bcl-2(+) WEHI7.2 cells were pre-incubated±60 μM peptides plus Chariot reagent and then incubated with 20 μg/ml anti-CD3 for 24 hr. Symbols represent the percentage of cells (mean±SEM) with apoptotic nuclei in three experiments for Bcl-2(−) and five experiments for Bcl-2(+) cells (200 cells counted per coverslip). (C) Jurkat cells were pre-incubated±60 μM peptides±Chariot reagent and then incubated with 5 μg/ml anti-CD3 for 24 hr. Symbols represent the percentage of cells (mean±SEM) with apoptotic nuclei in five experiments (240 cells counted per coverslip).
Peptide 2 also attenuated Bcl-2's inhibition of anti-CD3-induced apoptosis in Jurkat cells. In preliminary studies (data not shown), we tested several anti-CD3 concentrations. Higher concentrations of anti-CD3 induced high levels of apoptosis that might obscure the effect of the peptide. We therefore used 5 μg/ml anti-CD3, sufficient to induce 20%-30% apoptosis.

Experiment [4] has as its target T1, Bcl-2-IP3R interaction. Description: coimmunoprecipitation of Bcl-2 with IP3R from cell extracts. It is filed as binding. More on the design: expressed in transfected cells; host or cells: Bcl-2(+) WEHI7.2 cells; also Jurkat cells (endogenous Bcl-2). Conditions: 400 μM peptide; Bcl-2(+) WEHI7.2 and Jurkat cell extracts. As for the experimental part:
FIG. 4 illustrates an IP3R Peptide Inhibits Bcl-2-IP3R Interaction but Not Bim-Bcl-2 Interaction. (A and D) IP3R was immunoprecipitated from extracts of Bcl-2(+) WEHI7.2 cells (C) or Jurkat cells in the presence of 400 μM peptides. Peptide 2, but not peptide 1 or control peptide, inhibited the Bcl-2-IP3R coimmunoprecipitation. Summary of Bcl-2 immunoblot signal intensities in three […] experiments identical to (C) (mean±SEM). (B) Bcl-2 was immunoprecipitated from Bcl-2(+) WEHI7.2 cell extracts in the presence of 400 μM peptides, and coimmunoprecipitation of Bim was detected by anti-Bim immunoblotting. […] (E) Summary of Bim immunoblot signal intensities in three experiments identical to (B) (mean±SEM).
Since the IP3R binding region was narrowed down to the 80 amino acid subdomain 3a1 (aa 1347-1426), we designed two 20 amino acid peptides (peptide 1, aa 1365-1384 (SEQ ID NO:2); peptide 2, aa 1389-1408 (SEQ ID NO:3)) based on the degree of homology in this region among different IP3R isoforms. […] The inhibitory effect of peptide 2 on Bcl-2-IP3R interaction was also detected in coimmunoprecipitation assays employing both Bcl-2(+) WEHI7.2 cells (FIGS. 4A and 4B) and Jurkat cells (FIG. 4C). […]

T1 sequence (P10415 whole entry, the tested form may be a part): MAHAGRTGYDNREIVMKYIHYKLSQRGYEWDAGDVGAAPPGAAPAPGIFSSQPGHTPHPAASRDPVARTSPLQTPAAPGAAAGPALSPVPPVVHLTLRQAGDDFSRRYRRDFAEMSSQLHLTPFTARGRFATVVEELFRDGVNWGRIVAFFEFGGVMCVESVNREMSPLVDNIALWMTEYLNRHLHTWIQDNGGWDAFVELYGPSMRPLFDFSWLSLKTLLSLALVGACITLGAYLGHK

Turning to “NVYTEIKCNSLLPLDDIVRV (listed as Homo sapiens) [peptide 2, 20 amino acid peptide, aa 1389-1408 of IP3R subdomain 3a1]”, the “amount of Bcl-2 bound to GST-IP3R domain 3” value in experiment [1] (200 μM peptide) and in experiment [1] (1 mM peptide) was “significantly decreased” in each case. In experiment [2] (10 μM peptide after 0.1 μM purified Bcl-2, Bcl-2 alone 0.018), the IP3R open probability is recorded as 0.16. Further, the “reversal of Bcl-2's inhibitory effect on channel activity” value in experiment [2] (after 0.1 μM purified Bcl-2) is recorded as “reversed”. In addition, the “anti-CD3-induced apoptosis (percentage of apoptotic cells)” value in experiment [3] (60 μM peptide with Chariot, 5 μg/ml anti-CD3, 24 hr, anti-CD3 alone 20%-30%) is 40%-45%. Also, in experiment [3] (peptide in the absence of Chariot reagent), the “effect on anti-CD3-induced apoptosis” value was “did not have an effect”. In addition, the “inhibition of Bcl-2-IP3R coimmunoprecipitation” value in experiment [4] is reported as “consistently inhibited”.
